Drawing on patent US20180153830A1, “SELECTIVE INHIBITORS OF UNDIFFERENTIATED CELLS” (Yissum Research Development Company of the Hebrew …, priority 2012, published 2018), this text covers EC50 and inhibition for 13 molecules.

One may read the EC50 as the concentration needed to bring the measured effect to its halfway point. As usually defined, the inhibition is the relative decrease from the control value, in per cent.

What all share (format): cell-based
In data set [1] the test system is CSES2-SO2/3 embryonic stem cells. The data set can be described thus: CellTiter-Glo luminescent cell viability screen, CSES2-SO2/3. To be noted: Homo sapiens; for EC50: 24 h; for inhibition at 20 µM: pluripotent stem cells. Here is the method: 5,000 CSES2 cells were plated in 50 μl per well of mTeSR1 medium into black 384-well clear-bottom plates (Falcon BD) pre-coated with Matrigel™ using WellMate cell dispenser (Matrix, Hudson, N.H.). 24 hours after plating, medium was replaced with 25 μl of fresh medium and 25 μl of 40 μM compound medium solutions in 1% DMSO from the intermediate compound dilution plates. The plates were incubated at 37° C., in a 5% CO2 atmosphere, for the entire duration of the screen, apart from the time required for liquid handling. Cell viability was determined 24 hours after compound treatment using CellTiter-Glo® luminescent cell viability assay kits. 50 μl of CellTiter-Glo® reagent was added to each well of the assay plates and fully mixed. After incubation at room temperature for 15 minutes, 25 μl of liquid was transferred from each well into a white opaque-bottom 384-well plate (PerkinElmer), and luminescence was measured using an EnVision® plate reader (PerkinElmer). 16 neutral control wells (0.5% DMSO) and 8 positive control wells (5 μM amsacrine hydrochloride were used to normalize the compound effect. All liquid transfer steps were handled with a Biomek® FXP Laboratory Automation Workstation (Beckman Coulter, Fullerton, Calif.) and Muitidrop Combi liquid dispenser (Thermo Fisher, Waltham, Mass.). An Assay Analyzer (Genedata, Basel, Switzerland) was used for data pattern correction and calculation. The Spotfire software (Spotfire, Somerville, Mass.) was used for data illustration.
The compounds identified as hits from the primary screen were retested at a concentration of 20 μM against three pluripotent stem cell lines (CSES2, H9 and CSES2-SO2/3) for confirmation screens.
(§1) 696 confirmed hits from the confirmation screen were tested for profiling in a panel of 13 different cell types, using the same screening protocol described above (except in the case of embryonic stem cell-derived neural stem cells (NSCs) and mesenchymal stem cells (MSCs), for which the protocol is described below). As discussed below, compounds were tested either in dose-dependent multiple concentration manner or in single concentration manner. CSES2 and CSES2-SO2/3 cell lines and the early endodermal progenitors derived from this cell line (CSES2-SO2/3-differentiated) were screened at 8 concentrations ranging from 50 μM to 23 nM with 1:3 serial dilution steps. BJ-iPS28 cell line and the BJ fibroblasts from which it was derived were screened at 6 concentrations ranging from 50 μM to 200 nM with 1:3 serial dilution steps. Cardiomyocytes were screened in one concentration of 20 μM. HeLa and NTERA-2 cell lines were screened in duplicates of 20 μM. Kelly and Huh-7 were screened in triplicates of 20 μM. Hepatocytes were screened in duplicates of 20 μM in the original 96-well plates in which the cells arrived (40,000 cells per well, in 160 μl medium, the volumes of all reagents involved were adjusted accordingly). MSCs and NSCs were screened in duplicates of 12.5 μM.
The raw intensity data for each well were background-corrected by subtraction of the median intensities across all positive control wells on the same plate, and used to calculate the inhibitory effect of each compound per cell line. A Genedata Assay Analyzer and Condoseo were used for data pattern correction, calculation and IC50 curve fitting. A Z′ factor was determined for each plate.

Data set [2] has as its system CSES2-SO2/3 ES-derived endodermal progenitors. The data set can be described thus: CellTiter-Glo counter-screen, endodermal progenitors. To be noted: Homo sapiens; for EC50: 24 hours, differentiated cells. The procedure:
CSES2-SO2/3 embryonic stem cells were differentiated to endodermal progenitors using an established protocol [Duan et al. Stem Cells 28:674-686 (2010)]. Undifferentiated cells were seeded at a density of 10,000 cells/cm^2 on MatrigelT™-coated plates, with mTeSR1 medium. The next day (day 1), medium was replaced to serum-free RPMI-1640, supplemented with 2 mM glutamine, 100 ng/ml Activin A 60 μg/ml of G418 geneticin sulfate and 0.3 μg/ml of puromycin. From day 3 to day 8, the same medium was also supplemented with 1×B27 supplement (Invitrogen) and 0.5 mM sodium butyrate. The cellular identity of the cells as endodermal progenitors was verified by quantifying the percentage of green SOX17+ cells, and the percentage of CXCR4+ cells, using a Guava® EasyCyte™ Plus flow cytometry system (Millipore). Further validation was obtained by fluorescence-staining of the cells with an antibody against the early endodermal surface marker CXCR4 (CXCR4-PE antibody, 1:25; BD Biosciences). The percentage of CXCR4+ cells was also quantified using the Guava® EasyCyte™ Plus flow cytometry system.
as §1, with “CSES2 and CSES2-SO2/3 cell lines and the early endodermal progenitors derived from this cell line (CSES2-SO2/3-differentiated) were screened at 8 concentrations ranging from 50 μM to 23 nM with 1:3 serial dilution steps.” left out
(§2) In order to identify highly-selective cytotoxic inhibitors of hPSCs, the 696 cytotoxic inhibitors of hPSCs identified as described in Example 1 were counter-screened as described in the Materials and Methods section against other cell types, representative of all germ layers and developmental stages. Importantly, many of these cell types were differentiated from human ES or iPS cells. The screened cell types included ES-derived neural stem cells (NSCs), ES-derived mesenchymal stem cells (MSCs), ES-derived endodermal progenitor cells, ES-derived hepatocytes, iPS-derived cardiomyocytes, iPS-derived fibroblasts of origin (BJ fibroblasts), and three cancer cell lines: neuroblastoma (Kelly), cervical cancer (HeLa) and hepatocarcinoma (Huh7). The cell types and their relationship to stem cells are depicted schematically in FIG. 14.
The identified compounds were screened at 8 concentrations using both the undifferentiated red cells and the differentiated green cells, and reliable EC50 values were thereby calculated for the genetically identical differentiated and undifferentiated cells.
(ATP-based viability assays read luminescence as a measure of living cells.)

A short description of data set [3]: CellTiter-Glo counter-screen, hepatocytes. To be noted: human, human embryonic stem cell-derived hepatocytes (Cellartis), read-out: Inhibition (%) ES-derived hepatocytes. The procedure: Human embryonic stem cell-derived hepatocytes were obtained from Cellartis (Goteborg, Sweden), and handled according to the manufacturer's instructions;
as §1, §2

Data set [4] has as its system BJ-fibroblasts. The data set can be described thus: CellTiter-Glo counter-screen, BJ-fibroblasts. To be noted: Homo sapiens; for EC50: 24 hours, differentiated cells. Here is the method:
(§3) The cervical carcinoma cell line HeLa, teratocarcinoma cell line NTERA-2, and immortalized BJ fibroblast cell line, were cultured in DMEM supplemented with 10% FBS, penicillin (50 U/ml) and streptomycin (50 μg/ml).
as §1, §2
In addition, the identified compounds were screened at 6 concentrations using the BJ-fibroblasts from which the iPS line BJ-iPS28 had been derived, and reliable EC50 values were thereby calculated for both the iPS cells and for their somatic cells of origin.

For data set [5], the system named is HeLa cells. The data set can be described thus: CellTiter-Glo counter-screen, HeLa. To be noted: Homo sapiens, cancer cells. Here is the method:
as §3, §1, §2

A value given as a limit tells only on which side of the number the result lay.

For the molecule `CCCCCC(=O)NNc1ccc(Cl)cc1` [PluriSIn #10], the EC50 was 2.49 µM in data set [1], greater than 50 µM in data set [2] and greater than 50 µM in data set [4]. In addition, the inhibition at 20 µM in data set [1] is 95.2%; in data set [2] it was 33.8%; in data set [3] it was 3.6%; in data set [4] it was -20.1%; in data set [5], 3%.

Take `O=C(NCCc1ccc(O)cc1)c1ccc(N2CCCCC2)cc1` [PluriSIn #4]: the figures for the EC50 in data set [1], in data set [2] and in data set [4] were 4.71 µM, greater than 50 µM and greater than 50 µM, respectively. Besides, the inhibition at 20 µM is 74.5% in data set [1]; -1.1% in data set [2]; 10.5% in data set [3]; -22.9% in data set [4]; 2.2% in data set [5].

`O=S(=O)(NNc1ccccc1)c1ccc2ccccc2c1` [PluriSIn #5]: the EC50 in data set [1] is 3.2 µM; in data set [2], greater than 50 µM; in data set [4] it was greater than 50 µM. Moreover, the inhibition at 20 µM was 92.3% in data set [1]; 12.9% in data set [2]; 0.3% in data set [3]; -7.5% in data set [4]; -0.6% in data set [5].

With `O=C(NN(C(=O)c1ccccc1)c1ccccc1)c1ccc(Cl)cc1` [PluriSIn #14], the EC50 in data set [1] is 5.51 µM; in data set [2] it was greater than 50 µM; in data set [4] it was greater than 50 µM. Further, the inhibition at 20 µM was 90.1% in data set [1]; 18.8% in data set [2]; -4.1% in data set [3]; -18.6% in data set [4]; -2.3% in data set [5].

Regarding `CCOC(=O)CN1CC(=O)/C(=C\NNc2ccccc2)C1=O` [PluriSIn #11], the EC50 in data set [1] was 3.62 µM; in data set [2], greater than 50 µM; in data set [4] it was greater than 50 µM. For the same molecule, the inhibition at 20 µM was 92.5% in data set [1]; 4.3% in data set [2]; -4.7% in data set [3]; -19.3% in data set [4]; -0.7% in data set [5].

`O=C(Nc1ccccc1)n1cc(F)c(=O)[nH]c1=O` [PluriSIn #2]: the EC50 in data set [1] is 12.4 µM; in data set [2], greater than 50 µM; in data set [4] it was greater than 50 µM. In addition, the inhibition at 20 µM was 54.3% in data set [1]; -8.3% in data set [2]; 13.2% in data set [3]; -8.3% in data set [4]; -2.1% in data set [5].

On to `Nc1cc(N)cc(COc2ccc(-c3ccccc3)cc2)c1` [PluriSIn #3], for which the results for the EC50 in data set [1], in data set [2] and in data set [4] were 2.79 µM, greater than 50 µM and greater than 50 µM, respectively. The inhibition at 20 µM was 97.4% in data set [1]; -9.2% in data set [2]; 2.8% in data set [3]; -25.4% in data set [4]; -4.2% in data set [5].

For `CCN(CC)C(=O)C(=O)c1c(-c2ccccc2)[nH]c2c1sc1ccccc12` [PluriSIn #12], the EC50 in data set [1] is 6.04 µM; in data set [2] it was greater than 50 µM; in data set [4] it was greater than 50 µM. For the same molecule, the inhibition at 20 µM was 92.9% in data set [1], -3.9% in data set [3], -8.4% in data set [4] and 15.2% in data set [5].

In the case of `O=C(NNc1ccccc1)c1ccncc1` [PluriSIn #1, isonicotinic acid N′-phenylhydrazide], the EC50 in data set [1] is 3.91 µM; in data set [2] it was greater than 50 µM; in data set [4], greater than 50 µM. Besides, the inhibition at 20 µM in data set [1] is 90.8%; in data set [2], 6.5%; in data set [3], 16.2%; in data set [4] it was -8.8%; in data set [5], 5.7%.

For `C/C(=N\O)NNc1ccc(Cl)cc1` [PluriSIn #9], the 50% effective concentration (EC50) is 4.61 µM in data set [1], greater than 50 µM in data set [2] and greater than 50 µM in data set [4]. Also, the inhibition at 20 µM is 89.2% in data set [1]; 11.9% in data set [2]; 6.1% in data set [3]; -22.7% in data set [4]; -0.7% in data set [5].

On to `O=C1C=CC=C1/C=C/C(=N\Nc1ccccc1)c1ccccc1` [PluriSIn #13], for which the figures for the EC50 in data set [1], in data set [2] and in data set [4] were 3.45 µM, greater than 50 µM and greater than 50 µM, respectively. Also, the inhibition at 20 µM in data set [1] is 94.6%; in data set [2], 15.8%; in data set [3], 13.4%; in data set [4], -15.4%; in data set [5], 0%.

In the case of `CC(=O)Oc1ccc(/C=C/c2ccc3c(c2)CCN3C)cc1` [PluriSIn #7], the EC50 in data set [1] was 2.74 µM; in data set [2], greater than 50 µM; in data set [4] it was greater than 50 µM. In addition, the inhibition at 20 µM is 95.4% in data set [1]; 24.8% in data set [2]; 15.3% in data set [3]; -9.7% in data set [4]; -3.6% in data set [5].

Turning to `C(=N\C1CCC(CC2CCCCC2)CC1)/OC1CCOC1` (stereo not shown) [PluriSIn #15], the EC50 in data set [1] is 10 µM; in data set [2], greater than 50 µM; in data set [4] it was greater than 50 µM. For the same molecule, the inhibition at 20 µM in data set [1] is 72.2%; in data set [2] it was 2.1%; in data set [3], 18.8%; in data set [4], -6.1%; in data set [5], 17.8%.
